Experiment [1] relates to T cell proliferation. The following applies: Singer et al.; cited from earlier work.
The subject of experiment [2] is NIH3T3 cell line (D5C3). The experiment in a line: Blocking transformed phenotype of D5C3 cells (temperature-sensitive v-abl). It is filed as cell-based, murine. More on the design: key to Phenotype: 1+ represents a typical fibroblastic appearance of nontransformed NIH3T3 cells; visually graded on a scale of + (1+) to +++++ (5+); visually graded on a scale of + (1+) to +++++ (5+); +++++: 5+ represents a fully transformed phenotype; key to Growth: the nontransformed cells were scored as 1+ (for slower growth); graded from + (1+) to +++++ (5+); graded from + (1+) to +++++ (5+); +++++: the transformed cells were scored as 5+ (for rapid growth). The following applies: for Growth / Phenotype: ciprofloxacin 50 µg/ml; for Phenotype: visually graded. The protocol:
In an additional assay method of the invention, the effect of coadministering a xanthine compound with a candidate inhibitor for P450 can be assessed using transformed NIH3T3-[…] cells and comparing the effect on transformation phenotype among control, incubation with the xanthine derivative alone, and coincubation of the xanthine derivative with the P450 enzyme inhibitor. An NIH3T3 cell line ([…]) provides target cells which were transformed by an activated oncogene. The cells were transformed with a temperature-sensitive v-abl mutant gene. This mutant gene encodes a temperature-sensitive v-abl protein that produces a non-oncogenic product at a non-permissive temperature due to a lack of tyrosine phosphorylation. The cells were incubated at the permissive temperature (33°C) for 5 days after passage with and without pentoxifylline (1 mM).

Experiment [3] relates to Human glomerular mesangial cells. Kind of experiment: Invention assay: HPLC of lipids (PA, DAG) extracted from IL-1-stimulated mesangial cells. It is filed as cell-based. The protocol: The compounds of Formula I are shown to modulate the effects of primary stimuli which elevate levels of the relevant subspecies of PA and DAG using the assay system of the invention. In general for the assay, the cells to be tested are first incubated with the primary stimulating agent for various time periods and fixed in ice-cold methanol. The lipids are extracted using, for example, chloroform:methanol 2:1 (v/v), and the extracts are then subjected to HPLC as described by Bursten and Harris, Biochemistry (1991) . In this method, a Rainin mu-Porasil column is used with a 3:4 hexane:propanol organic carrier and a 1-10% water gradient during the first 10 minutes of separation. Detection of the peaks in the elution pattern is by absorption in the range of ultraviolet which detects isolated double bonds. Thus, the relevant peaks of unsaturated PA and DAG are shown in the elution pattern. It is important to note that the assay method permits discrimination between various forms of PA and DAG so that those relevant to the pathway affected by the compounds of Formula I can be measured directly. Confirmation of the nature of the acyl substituents of these components is accomplished using fast-atom bombardment mass spectroscopy. Thus, the relevant unsaturated (non-arachidonic) PA and DAG subspecies may be detected. The time periods employed are 5-60 seconds after stimulation with the primary stimulus, such as a cytokine. This technique permits assessment of the levels of various lipid components as a function of time. […]
The extracts were subjected to HPLC on a Rainin mu-Porasil column with a 3:4 hexane:propanol organic carrier and a 1-10% water gradient during the first 10 minutes of separation. The relative concentration of each lipid species is determined using absorption at 206 nm (A206), which follows unsaturated acyl content of lipid species. […] The absolute mass of each lipid species is determined by isolation of the lipid using a fraction collector, repurification on the HPLC column. […] Protein concentration is determined using the Bradford technique. […]

In experiment [4] the test system is IL-6 transcripts in bone marrow stromal cells. Kind of experiment: Northern blot of IL-6 transcripts. In kind it is cell-based. The following applies: three-hour exposure, increasing concentrations.
The subject of experiment [5] is NIH3T3 murine fibroblast cells transformed with a mutated K-ras. Kind of experiment: Growth and anchorage-independent growth in soft agar of K-ras-transformed cells in vitro. The following applies: Mus musculus, NIH3T3, read-out: concentrations resulting in inhibition of growth and suppression of anchorage-independent growth. In kind it is cell-based. The protocol:
Additionally, NIH3T3 murine fibroblast cells transformed with a mutated K-ras (codon 12 Gly-Val) were tested in vitro and in nude mice.

Experiment [6] concerns IL-2 transcripts in CD3 positive lymphocytes. Kind of experiment: Northern blot, mixed lymphocyte reaction. In kind it is cell-based. The following applies: Figure 19B.
Experiment [7] deals with TNFα transcripts in U937 cells. The experiment in a line: Northern blot of TNF transcripts after LPS induction. In kind it is cell-based. The following applies: 1 mM PTX; LPS for three hours.
Experiment [8] deals with human leukemic cell line (Mo7e). The experiment in a line: GM-CSF-stimulated colony formation in semisolid medium. It is filed as cell-based. The following applies: colonies counted 10 days after culture initiation; Figure 14. The protocol: The human leukemic cell line (Mo7e) is dependent on added granulocyte-macrophage colony-stimulating factor (GM-CSF) for growth. Mo7e cells were cultured in semisolid medium with and without pentoxifylline (PTX) and rhGM-CSF. Colonies were counted 10 days after culture initiation under an inverted microscope. […] PTX thus prevents the up-regulation of activation-associated genes which inhibit proliferation.

The test system of experiment [9] is IL-8 encoding mRNA in U937 and THP1. Kind of experiment: Northern blot of IL-8 mRNA after lipopolysaccharide or GM-CSF induction. In kind it is cell-based. The protocol:
The murine fibrosarcoma cell line, L929, was also tested as an indicator for assays of TNF cytotoxicity. Cell growth was assayed by crystal violet staining using optical density as a measure of growth. […] Finally, two monocytic cell lines, U937 and THP1, were used to test the effect of pentoxifylline on the […] of the cytokine IL-8. The cell lines in culture were induced to upregulate IL-8 production by lipopolysaccharide or GM-CSF.

Experiment [10] deals with Steel factor transcripts in marrow stromal cell lines. The experiment in a line: Northern blot of Steel factor transcripts. The following applies: three-hour incubation; passaged (native) or cloned (CDCL) lines. It is filed as cell-based.
Experiment [11] relates to SV40 T-antigen-transformed human kidney mesangial cells. Kind of experiment: Growth of transformed mesangial cells by tritiated thymidine uptake. In kind it is cell-based. The protocol:
SV40 T-antigen-transformed human kidney mesangial cells were cultured under standard conditions with rhIL-1 or with TNFα with and without pentoxifylline (PTX). Transformed mesangial cells grow independently of added growth factors, but IL-1 and TNFα are the normal proliferative signals for mesangial cells. As was shown in Example 1, when IL-1 is added to kidney mesangial cells, within 30 seconds LPAAT and PAPH are activated; the effect of both of these enzymes is inhibited by pentoxifylline at 1 mM. In this experiment, the growth of the treated cells was measured using tritiated thymidine uptake.

Experiment [12] relates to NIH3T3 murine fibroblast cells transformed with a mutated K-ras. Kind of experiment: Subcutaneous tumors of K-ras-transformed NIH3T3 cells in nude mice. In kind it is in vivo. As to conditions: after eight days, 10^6 cells subcutaneously. The method, then: Nude mice were injected subcutaneously with 10^6 cells and were treated either once or twice daily with 100 mg/kg pentoxifylline intraperitoneally. Control animals treated with only saline injections developed tumors that weighed 2.5 ±0.2 g after eight days. Animals treated once daily with pentoxifylline had tumors that weighed only 0.45 ±0.2 g while animals treated twice daily had tumors that weighed 0.2 ±0.1 g.

Experiment [13] concerns CD3-positive lymphocytes. Kind of experiment: Proliferation (thymidine uptake) of CD2-positive cells stimulated by anti-CD3 monoclonal antibody. In kind it is cell-based. The protocol:
In these experiments, freshly isolated, CD2-positive cells were stimulated by a solid-phase monoclonal antibody to acquire a CD3 phenotype, and then PTX was added. […] The block in proliferation could not be overcome by addition of either tumor necrosis factor (Figures 20 and 21) or IL-1 (Figure 21). […] The cytokines and PTX were added at culture inception and the cells were harvested after 5 days.

For experiment [14], the system named is phosphatidic acid phosphohydrolase (PAPH). Kind of experiment: Invention assay (lipid HPLC after IL-1), indirect enzyme inhibition. It is filed as cell-based, Human. The method, then: (§1) As shown hereinbelow, a simple assay involving incubation of target cells with primary stimulus in the presence or absence of the xanthine derivative followed by extraction and analysis of lipid content is diagnostic of the levels of various members of the foregoing pathway as characterized by their fatty acyl content. This assay indirectly measures the effect of the xanthine derivative on the relevant enzymes lysophosphatidic acid acyltransferase (LPAAT) and phosphatidic acid phosphoryl hydrolase (PAPH). In general, inhibition of these enzymes is effected by the xanthine derivative, thus resulting in lowering of the levels of the relevant species of the particular acylated subspecies of PA and DAG intermediates.
(§2) This example also illustrates the method of the invention.
(§3) Human glomerular mesangial cells were incubated with IL-1 for various time periods of 5-60 seconds and the cells were fixed in ice-cold methanol, and the lipids extracted using chloroform:methanol 2:1 (v/v). It is very important that the fixing/extraction process be conducted quickly so that the decomposition of unstable intermediates is halted.
(§4) The extracts were subjected to HPLC on a Rainin mu-Porasil column with a 3:4 hexane:propanol organic carrier and a 1-10% water gradient during the first 10 minutes of separation. The relative concentration of each lipid species is determined using absorption at 206 nm (A206), which follows unsaturated acyl content of lipid species. […] The absolute mass of each lipid species is determined by isolation of the lipid using a fraction collector, repurification on the HPLC column. Determination of phospholipid phosphorus is as nmoles/mg cellular protein. Protein concentration is determined using the Bradford technique.
(§5) Thus, the lyso PA that accumulates contains high levels of unsaturated fatty acids. Pentoxifylline in a dose range greater than 500 µM results in inhibition both of phosphatidate phosphohydrolase and of lyso PA acyl transferase.

For experiment [15], the system named is lyso-PA acyl transferase (LPAAT). The description is as above. In kind it is cell-based, Human. As to conditions: IL-1-stimulated HMC. The protocol: as §1, §2, §3, §4, §5
Experiment [16] concerns HLA-DR, the transferrin receptor (CD71), the IL-2 receptor (CD25), and CD69. The following applies: MLR-stimulated lymphocytes; Singer et al.; cited from earlier work.
The subject of experiment [17] is TNF transcripts in CD3 positive lymphocytes. The experiment in a line: Northern blot, mixed lymphocyte reaction. In kind it is cell-based. The following applies: Figure 19A.
Experiment [18] relates to IL-2 receptor transcripts in CD3 positive lymphocytes. The experiment in a line: Northern blot, mixed lymphocyte reaction. It is filed as cell-based. As to conditions: Figure 19C.
Setting [19] is: 33°C, 5 days, pentoxifylline 1 mM.

Take `Cn1cnc2c1c(=O)n(CCCC(=O)O)c(=O)n2C` [M5, 1-(3-carboxypropyl)-3,7-dimethylxanthine]: in experiment [1], the “suppression of T cell proliferation” value is “minimal or no suppression”.

As to `CC(O)C(O)CCCn1c(=O)c2c(ncn2C)n(C)c1=O` (stereo not drawn) [M3, 1-(4,5-dihydroxyhexyl) -3,7-dimethylxanthine], in experiment [1], the “suppression of T cell proliferation” value is “minimal or no suppression”.

On to `O=C(O)c1cn(C2CC2)c2cc(N3CCNCC3)c(F)cc2c1=O` [Ciprofloxacin], for which, in experiment [2] (setting [19]), the Growth entry was “++” and the Phenotype result is “++”. Besides, in experiment [2] (pentoxifylline 1 mM, Ciprofloxacin 50 µg/ml), the “inhibition of the transformed phenotype” value is listed as “significant effect”.

On to `CCOCn1cnc2c1c(=O)n(CCCCC(C)(C)O)c(=O)n2C` [HWA448], for which the “suppression of T cell proliferation” value in [1] is “active”.

On to `CC(=O)CCCCn1c(=O)c2c(ncn2C)n(C)c1=O` [Pentoxifylline], for which, in experiment [3] (100 µM pentoxifylline, 10^-11 M IL-1, 15- and 60-second points), the “cyclical formation of PA, and conversion of PA to DAG” value is “no change”. The “conversion of PA to DAG” value in [3] (500 µM pentoxifylline, 10^-11 M IL-1, 15 second time point) was “slight attenuation”. Moreover, the “elevation of PA and DAG by IL-1” value in experiment [3] (1 mM, all time points examined (15-60 seconds)) is “abolishes”. The “production of IL-6 transcripts” value in experiment [4] is listed as “increased”. In addition, the minimal effective concentration in experiment [5] was ≥ 500 µM. For the same compound, the appearance of cells result in [2] (1 mM, 33°C, 5 days) is “predominantly non-transformed, fibroblastic appearance”. Also, in experiment [2] (setting [19]), the Growth entry is on record as “+++” and the Phenotype entry was “+++”. Moreover, in [2] (Mus musculus, NIH3T3, 120 h, 1 mM, 33°C, 5 days, read-out: overall number of cells diminished), the inhibition at 1000 µM was ~50%. Further, the IL-2 transcripts result in [6] is “but not of IL-2 transcripts”. Also, the “proliferation of lymphocytes induced by anti-CD3” value in [1] is “suppressed”. Further, in experiment [7], the “TNF RNA obtained in response to LPS stimulation” value is reported as “undetectable level”. The “GM-CSF-stimulated growth of colonies” value in [8] was “enhanced”. In addition, in [9], the “synthesis of IL-8” value was “did not inhibit”. Besides, the “levels of Steel factor transcripts” value in experiment [10] is recorded as “increases”. Also, the “proliferative effect of TNF” value in experiment [11] (TNFα, Figure 13B) is listed as “enhances”. For the same compound, the “growth stimulated by IL-1” value in experiment [11] (rhIL-1, Figure 13A) is recorded as “arrested growth”. For the same compound, in [12] (100 mg/kg intraperitoneally once daily), the tumor weight was 0.45 ± 0.2 g. The compound further showed a tumor weight in experiment [12] (100 mg/kg intraperitoneally twice daily) of 0.2 ± 0.1 g. In addition, the “Proliferation of CD3-positive lymphocytes” value in [13] (CD2-positive cells stimulated by solid-phase monoclonal antibody) is reported as “strikingly inhibited”. Moreover, the thymidine uptake result in experiment [13] (antibody 64.1, harvested after 5 days, not reversed by IL-1 or TNF) was “diminished”. For the same compound, the “inhibition of PAPH” value in [14] (0.5 mM) is listed as “inhibits”. For the same compound, the “dose range resulting in inhibition of phosphatidate phosphohydrolase” value in [14] (IL-1-stimulated HMC) is “greater than 500 µM”. In experiment [15], the “dose range resulting in inhibition of lyso PA acyl transferase” value is “greater than 500 µM”. Also, the “expression of cell surface antigens on lymphocytes” value in experiment [16] is on record as “decreased”. Also, in experiment [17], the TNF transcripts entry is recorded as “suppression”. In addition, the IL-2 receptor transcripts result in [18] was “suppression”.

For the compound `Cn1c(=O)n(CCCCC(C)(C)O)c(=O)c2[nH]cnc21` [HWA138], in experiment [1], the “suppression of T cell proliferation” value is recorded as “minimal or no suppression”.

For the compound `Cn1cnc2c1c(=O)n(CCCCC(=O)O)c(=O)n2C` [M4, 1-(4-carboxybutyl)-3,7-dimethylxanthine], the “suppression of T cell proliferation” value in [1] is recorded as “minimal or no suppression”.

As for `CC(O)CCCCn1c(=O)c2c(ncn2C)n(C)c1=O` (stereo not drawn) [M1, 1-(5-hydroxyhexyl) -3,7-dimethylxanthine], the “suppression of T cell proliferation” value in [1] was “active”.
